{"source": "patent US20210196674A1", "about": "“Therapeutics for Malaria” (priority 2015, published 2021)", "key": {"Staphylococcus aureus": {"test_system": "Staphylococcus aureus", "settings": "cited from earlier work; for growth inhibitory action: alone; for effect with berberine against Staphylococcus aureus: combination with berberine, attributed to inhibition of MDR pump"}, "[1]": {"settings": "after consumption of 200 mg of naringenin, present in grapefruit juice; cited from earlier work"}, "[2]": {"settings": "in vivo, cited from earlier work; for half-life in the blood: po"}, "Plasmodium falciparum": {"test_system": "Plasmodium falciparum", "settings": "cited from earlier work; for antimalarial effect: alone, catechins from a crude green tea extract; for effect on Artemisinin activity in vitro: combination with Artemisinin"}, "[3]": {"test_system": "malaria (P. falciparum) infection", "assay": "Clinical trials in Haiti: 16-day low-dose Artemisinin with or without Citrus bioflavonoid", "format": "in vivo, human", "settings": "single 16-day treatment; daily Artemisinin: babies 25 mg, children 2-12 years 50 mg, adults 100 mg; n=17", "experimental": "In one example, patients in Haiti with non-complicated and complicated malaria (P. falciparum) infection were recruited to test the efficacy of peroxybioflavonoid treatment. The treated patient population included infants (n=7), children under age 18 (n>100), and adults (n>75).\nEach day, babies were given 25 mg, children 2-12 years old received 50 mg and adults 100 mg of Artemisinin (low-dose Artemisinin). In some patients, Artemisinin was given alone. In other patients, the Artemisinin was combined with Citrus bioflavonoid (peroxybioflavonoid). Patients were treated for 16 days."}, "Plasmodium berghei": {"test_system": "Plasmodium berghei", "settings": "curcumin orally 100 mg/kg in combination with Artemisinin at 0.75 and 1.5 mg/mouse; cited from earlier work"}, "[4]": {"settings": "lambs; cited from earlier work"}}, "note": "Where two headings read alike, the source gives them in different places.", "data": [{"molecule": "COc1cc2oc(-c3ccc(O)c(O)c3)c(OC)c(=O)c2c(O)c1OC", "note": "[chrysosplenol-D]", "values": [{"measurement": "growth inhibitory action", "setting": "Staphylococcus aureus", "value": "very weak"}, {"measurement": "effect with berberine against Staphylococcus aureus", "setting": "Staphylococcus aureus", "value": "synergistic effect"}]}, {"molecule": "O=C1C[C@@H](c2ccc(O)cc2)Oc2cc(O)cc(O)c21", "note": "[naringenin]", "values": [{"measurement": "plasma concentrations", "setting": "[1]", "value": "≤ 6.0", "unit": "µM"}]}, {"molecule": "CCO[C@H]1O[C@@H]2O[C@@]3(C)CC[C@H]4[C@H](C)CC[C@@H]([C@H]1C)[C@@]24OO3", "note": "[arteether]", "values": [{"measurement": "half-life", "setting": "[2]; im", "value": "7 to 9", "unit": "h"}, {"measurement": "half-life in the blood", "setting": "[2]", "value": "1 to 2", "unit": "h"}]}, {"molecule": "COc1cc(-c2oc3cc(OC)c(OC)c(O)c3c(=O)c2OC)ccc1O", "note": "[chrysoplenetin]", "values": [{"measurement": "growth inhibitory action", "setting": "Staphylococcus aureus", "value": "very weak"}, {"measurement": "effect with berberine against Staphylococcus aureus", "setting": "Staphylococcus aureus", "value": "synergistic effect"}]}, {"molecule": "O=C(O[C@@H]1Cc2c(O)cc(O)cc2O[C@@H]1c1cc(O)c(O)c(O)c1)c1cc(O)c(O)c(O)c1", "note": "[epigallocatechin gallate]", "values": [{"measurement": "antimalarial effect", "setting": "Plasmodium falciparum", "value": "antimalarial effects of their own"}, {"measurement": "effect on Artemisinin activity in vitro", "setting": "Plasmodium falciparum", "value": "potentiate the effects of Artemisinin"}]}, {"molecule": "C[C@H]1[C@H](OC(=O)CCC(=O)O)O[C@@H]2O[C@@]3(C)CC[C@H]4[C@H](C)CC[C@@H]1[C@@]24OO3", "note": "[artesunate]", "values": [{"measurement": "half-life", "setting": "[2]; im", "value": "7 to 9", "unit": "h"}, {"measurement": "half-life in the blood", "setting": "[2]", "value": "1 to 2", "unit": "h"}]}, {"molecule": "C[C@@H]1CC[C@H]2[C@@H](C)C(=O)O[C@@H]3O[C@@]4(C)CC[C@@H]1[C@]32OO4", "note": "[Artemisinin]", "values": [{"measurement": "remained free of malaria post-treatment", "setting": "[3]", "value": "up to nine"}, {"measurement": "half-life", "setting": "[2]", "value": "very short"}]}, {"molecule": "COc1cc(/C=C/C(=O)CC(=O)/C=C/c2ccc(O)c(OC)c2)ccc1O", "note": "[curcumin]", "values": [{"measurement": "survival rate of infected mice", "setting": "Plasmodium berghei", "value": "increased survival rate"}]}, {"molecule": "O=c1c(O)c(-c2ccc(O)c(O)c2)oc2cc(O)cc(O)c12", "note": "[quercetin]", "values": [{"measurement": "bioavailability of moxidectin", "setting": "[4]", "value": "increase the bioavailability"}]}, {"molecule": "catechin gallate", "values": [{"measurement": "antimalarial effect", "setting": "Plasmodium falciparum", "value": "antimalarial effects of their own"}, {"measurement": "effect on Artemisinin activity in vitro", "setting": "Plasmodium falciparum", "value": "potentiate the effects of Artemisinin"}]}]}
